Where two headings read alike, the source gives them in different places.
What was measured:
[1] = SGN of granular product (product specifications); type: physicochemical; conditions: average
[2] = Water, HCHO and biuret content of urea compositions by IR and/or HPLC; type: physicochemical; conditions: average
Description: The water, HCHO, NBPT and biuret content of the urea compositions were analyzed by IR and/or HPLC. All concentrations were calculated in μg/ml unless otherwise noted. HPLC samples were prepared by weighing approximately 0.4 grams of sample into a 10-20 mL disposable glass vial or volumetric flask. For high concentration samples (>30% inhibitor), approximately 0.025 grams of sample was weighed into a 100 mL volumetric flask. For lower concentration samples, 10 mL of water was added and the sample was shaken until the sample was dissolved. For higher concentration samples, the sample was diluted to the 100 mL mark with diluent. A disposable dropper was used to transfer the sample into an autosampler vial. The sample was analyzed in duplicate including a diluent blank using the conditions below. The evaluation was carried out by the method of external standard with the calibration using a calibration line. A minimum of 2 sets of standards as set out below were run before and after unknowns. RSD is the relative deviation in rel. %, calculated from three repeats of sampling and two repeats of analysis of each sample (see EP 15688). […]
The chromatogram was evaluated at the wavelength of 214 nm. […]

[3] = Crush strength of urea particles; type: physicochemical; conditions: average strength of 20 particles
Description: The crush strength was determined by subjecting individual particles of urea to a measured force, applied by means of a metal plunger. The force, at which the particle fractures, was taken as a measure of strength. The average strength of 20 particles were reported.

[4] = cited from earlier work

| SMILES | SGN [1] | % HCHO [2] | Crush Strength [3] | half-life of NBPT ([4]; NBPT injected into the melted urea before granulation) | half-life of NBPT ([4]; surface-treated urea) |
| --- | --- | --- | --- | --- | --- |
| NC(N)=O [Urea] | 277.0 | <0.5% | 7.5 lbs |  |  |
| CCCCNP(N)(N)=S [NBPT, N-(n-butyl) thiophosphoric triamide] |  |  |  | more than one | about six |
